System: 475296-252-R-J1-PDC spheroid viability
Assay: Anticancer human tumor 475296-252-R-J1-PDC patient-derived rectal carcinoma cell line growth inhibition [PI3K]
Conditions: spheroids with HUVEC and MSC; for IC50: curve of first compound; for viability, T/C: stronger effect = lower value
Outline: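 Tumor cells grown as multi-cell spheroids with HUVEC endothelial cells and MSC fibroblast-like stroma were treated with targeted agents combined with inavolisib, alpelisib, duvelisib or copanlisib. Doses fell in half-log steps from near clinical Cmax, else from 10 microM. Viability was measured.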

[1] = second compound 0.0316 µM, first compound 0.0316 µM
[2] = second compound 0.0316 µM, first compound 0.1 µM
[3] = second compound 0.0316 µM, first compound 0.316 µM
[4] = second compound 0.0316 µM, first compound 1 µM
[5] = second compound 0.0316 µM, first compound 3.16 µM
[6] = second compound 0.0316 µM, first compound 10 µM
[7] = second compound 0.1 µM, first compound 0.0316 µM
[8] = second compound 0.1 µM, first compound 0.1 µM
[9] = second compound 0.1 µM, first compound 0.316 µM
[10] = second compound 0.1 µM, first compound 1 µM
[11] = second compound 0.1 µM, first compound 3.16 µM
[12] = second compound 0.1 µM, first compound 10 µM
[13] = second compound 0.316 µM, first compound 0.0316 µM
[14] = second compound 0.316 µM, first compound 0.1 µM
[15] = second compound 0.316 µM, first compound 0.316 µM
[16] = second compound 0.316 µM, first compound 1 µM
[17] = second compound 0.316 µM, first compound 3.16 µM
[18] = second compound 0.316 µM, first compound 10 µM
[19] = second compound 1 µM, first compound 0.0316 µM
[20] = second compound 1 µM, first compound 0.1 µM
[21] = second compound 1 µM, first compound 0.316 µM
[22] = second compound 1 µM, first compound 1 µM
[23] = second compound 1 µM, first compound 3.16 µM
[24] = second compound 1 µM, first compound 10 µM
[25] = second compound 3.16 µM, first compound 0.0316 µM
[26] = second compound 3.16 µM, first compound 0.1 µM
[27] = second compound 3.16 µM, first compound 0.316 µM
[28] = second compound 3.16 µM, first compound 1 µM
[29] = second compound 3.16 µM, first compound 3.16 µM
[30] = second compound 3.16 µM, first compound 10 µM
[31] = second compound 10 µM, first compound 0.0316 µM
[32] = second compound 10 µM, first compound 0.1 µM
[33] = second compound 10 µM, first compound 0.316 µM
[34] = second compound 10 µM, first compound 1 µM
[35] = second compound 10 µM, first compound 3.16 µM
[36] = second compound 10 µM, first compound 10 µM
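Note: spheroids exposed to agents for seven days before readout.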

C#Cc1c(F)ccc2cc(O)cc(-c3ncc4c(N5CC6CCC(C5)N6)nc(OCC56CCCN5CC(F)C6)nc4c3F)c12 (centres undefined) + CC(Nc1ncnc2nc[nH]c12)c1cc2cccc(Cl)c2c(=O)n1-c1ccccc1
IC50 (second compound 0.0316 µM): > 10 µM
IC50 (second compound 0.1 µM): > 10 µM
IC50 (second compound 0.316 µM): > 10 µM
IC50 (second compound 1 µM): 6.37 µM
IC50 (second compound 3.16 µM): 3.95 µM
IC50 (second compound 10 µM): 1.76 µM
viability, T/C [1]: 94.9%
viability, T/C [2]: 73.8%
viability, T/C [3]: 77.2%
viability, T/C [4]: 71.8%
viability, T/C [5]: 68.8%
viability, T/C [6]: 46.7%
viability, T/C [7]: 91.5%
viability, T/C [8]: 96.5%
viability, T/C [9]: 79.7%
viability, T/C [10]: 71.7%
viability, T/C [11]: 68.1%
viability, T/C [12]: 54.4%
viability, T/C [13]: 96.7%
viability, T/C [14]: 83.3%
viability, T/C [15]: 79.3%
viability, T/C [16]: 73.5%
viability, T/C [17]: 66.9%
viability, T/C [18]: 47.3%
viability, T/C [19]: 100%
viability, T/C [20]: 85.5%
viability, T/C [21]: 71.1%
viability, T/C [22]: 70.3%
viability, T/C [23]: 57.9%
viability, T/C [24]: 43.8%
viability, T/C [25]: 102%
viability, T/C [26]: 88.6%
viability, T/C [27]: 71.7%
viability, T/C [28]: 61%
viability, T/C [29]: 56%
viability, T/C [30]: 40.6%
viability, T/C [31]: 95.2%
viability, T/C [32]: 81.6%
viability, T/C [33]: 68.4%
viability, T/C [34]: 55.4%
viability, T/C [35]: 45.3%
viability, T/C [36]: 31.8%

C=CC(=O)N1CCN(c2nc(=O)n(-c3c(C)ccnc3C(C)C)c3nc(-c4c(O)cccc4F)c(F)cc23)C(C)C1 (centres undefined) + CC(Nc1ncnc2nc[nH]c12)c1cc2cccc(Cl)c2c(=O)n1-c1ccccc1
IC50 (second compound 0.0316 µM): > 10 µM
IC50 (second compound 0.1 µM): > 10 µM
IC50 (second compound 0.316 µM): > 10 µM
IC50 (second compound 1 µM): > 10 µM
IC50 (second compound 3.16 µM): > 10 µM
IC50 (second compound 10 µM): > 10 µM
viability, T/C [1]: 110%
viability, T/C [2]: 98.7%
viability, T/C [3]: 103%
viability, T/C [4]: 89%
viability, T/C [5]: 102%
viability, T/C [6]: 103%
viability, T/C [7]: 95.7%
viability, T/C [8]: 92%
viability, T/C [9]: 105%
viability, T/C [10]: 87.9%
viability, T/C [11]: 109%
viability, T/C [12]: 101%
viability, T/C [13]: 93.9%
viability, T/C [14]: 90.2%
viability, T/C [15]: 87.4%
viability, T/C [16]: 96%
viability, T/C [17]: 106%
viability, T/C [18]: 116%
viability, T/C [19]: 95.3%
viability, T/C [20]: 97.2%
viability, T/C [21]: 91.8%
viability, T/C [22]: 92.1%
viability, T/C [23]: 106%
viability, T/C [24]: 93.5%
viability, T/C [25]: 96.2%
viability, T/C [26]: 92.9%
viability, T/C [27]: 99.4%
viability, T/C [28]: 107%
viability, T/C [29]: 103%
viability, T/C [30]: 90.2%
viability, T/C [31]: 83.8%
viability, T/C [32]: 91.9%
viability, T/C [33]: 86.9%
viability, T/C [34]: 80.7%
viability, T/C [35]: 95.8%
viability, T/C [36]: 95.6%

Reference: PubChem BioAssay AID1963980 (Molecular Pharmacology Branch, DTP, NCI, 2024)
